We go through 22 molecules from PubChem BioAssay (NCI).

“And” between values parts separate entries of the source, which are not always exact repeats. Identical values can stand only once.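 How tested: cells in 96-well plates exposed to compound for 48 hours at five concentrations. GI50: concentration for 50% inhibition of growth. TGI denotes the concentration required for complete inhibition of growth.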

What all share (experiment): growth of human tumour cells (NCI), 48 h
Assay [1] deals with OVCAR-4 ovarian.
Assay [2] concerns HCC-2998 colon.
Assay [3] has as its system HOP-62 NSCLC.
The subject of assay [4] is T-47D breast.
Assay [5] deals with HS 578T breast.
The test system of assay [6] is OVCAR-8 ovarian.
The test system of assay [7] is SK-MEL-2 melanoma.
For assay [8], the system named is SK-MEL-5 melanoma.
The subject of assay [9] is SNB-75 CNS.
The subject of assay [10] is HL-60(TB) leukemia.

For `O=C1/C(=C\c2cccc(Oc3ccccc3)c2)SC(c2ccccc2)N1c1cccc([N+](=O)[O-])c1` (configuration not stated), the TGI in assay [1], in assay [2], in [3], in [4], in assay [5] and in [6] was more than 100 µM each time. Further, the TGI in assay [7] and in assay [8] was more than 100 µM throughout.

As to `O=C(CSc1nc2ccc(I)cc2c(=O)n1Cc1ccccc1)NN1C(=O)CCC1=O`, the TGI in assay [1] is 75.9 µM; in [2], more than 100 µM; in assay [9] it was more than 100 µM; in [3], more than 100 µM; in assay [4] it was more than 100 µM; in assay [6], more than 100 µM. Also, the TGI in assay [7] was more than 100 µM; in [8] it was more than 100 µM; in [10], 87.6 µM.

For `Cc1cn([C@H]2[C@@H](CO)C[C@H]2O)c(=O)[nH]c1=O`, the TGI in assay [1], in [2], in [9], in assay [3], in assay [5] and in [6] was more than 100 µM in each case. The TGI in assay [7], in [8] and in assay [10] was more than 100 µM in each case.

With `CCN(CC)CCN(C)CCc1ccc(Br)cc1`, the TGI in assay [1], in assay [2], in assay [9], in assay [3], in assay [4] and in assay [5] was more than 100 µM each time. For the same molecule, the TGI in [6] is more than 100 µM; in assay [7], more than 100 µM; in [8] it was 33.6 µM.

With `CO[P@]1(=O)O[C@@H](c2ccccc2)[C@H](O)[C@@]1(O)c1ccccc1`, the TGI in [1], in assay [9], in [4], in assay [6], in assay [7] and in [8] was more than 100 µM in each case. In assay [10], the TGI was more than 100 µM.

As to `[N-]=[N+]=C(C(=O)C(=[N+]=[N-])C(=O)c1ccccc1)C(=O)c1ccccc1`, the TGI in assay [2], in assay [9], in assay [3], in assay [5], in assay [6] and in assay [7] was more than 100 µM in each case. Besides, the TGI in assay [8] and in [10] was more than 100 µM each time.

`COc1ccc(/C=C2\CCC(CNc3ccc(Br)cc3)C2=O)cc1` (configuration not stated): the TGI in assay [1], in assay [2], in assay [3], in assay [4], in [6] and in assay [8] was more than 100 µM throughout. The same molecule came in with a TGI in [10] of more than 100 µM.

In the case of `COc1ccc(C2=C(OC(=O)N(C)C)c3cccn3-c3cc(Cl)ccc3S2)cc1`, the TGI in [1], in assay [2], in [9], in [3], in assay [4] and in assay [6] was more than 10 µM throughout. The TGI in assay [8] and in [10] was more than 10 µM each time.

For the molecule `CC(=O)CC1(C)OC(N)=C(C#N)C1(C#N)C#N` (configuration not stated), the TGI in [2], in assay [9], in assay [3], in [4], in assay [5] and in assay [6] was more than 100 µM each time. The TGI in [7] and in assay [8] was more than 100 µM in each case.

As to `CC(C)(C)c1ccc(-c2nnc(-c3cc(C#N)cc(-c4nnc(-c5ccc(C(C)(C)C)cc5)o4)c3)o2)cc1`, the TGI in assay [1], in assay [2], in assay [9], in assay [3], in assay [4] and in assay [5] was more than 100 µM each time. The TGI in assay [6], in assay [7] and in assay [8] was more than 100 µM in each case.

For `CC(C)(C)c1c(C(C)(C)C)c(=O)c1=O`, the TGI in assay [1], in [2], in assay [9], in assay [3], in [5] and in assay [6] was more than 100 µM throughout. The TGI in [7], in assay [8] and in assay [10] was more than 100 µM in each case.

In the case of `CCOC(=O)c1nc2ccccc2nc1NCc1ccc(Cl)cc1Cl`, the TGI in assay [1], in assay [9], in [3], in assay [4], in [5] and in [6] was more than 100 µM in each case. Also, the TGI in [7] and in assay [8] was more than 100 µM in each case.

Consider `CCOC(=O)C1CCCCc2sc(N)c(C#N)c21` (configuration not stated), for which the TGI in assay [2], in assay [9], in [3], in assay [5], in assay [6] and in [7] was more than 100 µM each time. Further, the TGI in assay [8] and in assay [10] was more than 100 µM in each case.

Regarding `CC(C)(C)CC(C)(C)c1ccc(OCCOCC[N+](C)(C)Cc2ccccc2)cc1`, the TGI is 9.38 µM in assay [1]; 4.05 µM in [2]; 2.34 µM and 5.55 µM in assay [9]; 33.5 µM in [3]; 4.81 µM in assay [5]; 12.8 µM in assay [6]. The TGI in assay [7] amounted to 9.71 µM; in assay [10], 6.31 µM. The figures for the GI50 in assay [9] and in assay [5] were 0.962 µM and 1.61 µM, respectively.

In the case of `Cc1cc(S(=O)(=O)O)c(NC(=O)c2oc3cc(O)ccc3c(=O)c2C)cc1Cl`, the TGI in [1], in [2], in [9], in assay [3], in assay [4] and in assay [5] was more than 100 µM in each case. Besides, the TGI in [6], in assay [7] and in [8] was more than 100 µM each time.

Consider `O=C(c1ccco1)C1CC(c2ccc3ccccc3c2O)=NN1c1ccc([N+](=O)[O-])cc1[N+](=O)[O-]` (configuration not stated), for which the TGI was more than 100 µM in assay [1]; more than 100 µM in [2]; 89.1 µM in [9]; more than 100 µM in assay [3]; more than 100 µM in assay [4]; 66.6 µM in [5]. In addition, the TGI is more than 100 µM in assay [6] and 97.3 µM in [7].

Turning to `CCOC(=O)CCCn1cc(C(=O)OC)nn1`, the TGI in [1], in [2], in [9], in assay [3], in [4] and in [5] was more than 100 µM throughout. In addition, the TGI in assay [6], in [7] and in assay [8] was more than 100 µM throughout.

`COc1ccc(-c2nc(-c3cnccn3)n(C3OC(CO)C(O)C(O)C3O)n2)cc1` (configuration not stated): the TGI in assay [1], in assay [2], in [9], in assay [3], in assay [4] and in [6] was more than 100 µM each time. The TGI in assay [8] and in [10] was more than 100 µM throughout.

For `Cc1ccc2c(c1)CC1(C2=O)[C@H](c2ccccc2)C2C(=O)c3ccc(C)cc3C2[C@H]1c1ccccc1` (some centres not stated), the TGI in assay [1], in [2], in [9], in assay [3], in [4] and in [6] was more than 100 µM in each case. Moreover, the TGI in assay [10] is more than 100 µM.

In the case of `CCCCCCOc1ccc(C(=N)N(CCCC)CCCC)c2ccccc12`, the GI50 in [2] is 1.59 µM; in assay [9], 1.19 µM; in assay [3] it was 1.7 µM; in [5], 1.61 µM; in assay [7] it was 1.72 µM; in assay [8] it was 1.52 µM. Also, the GI50 in [10] was 1.81 µM. Also, the TGI in assay [2] was found to be 3.03 µM; in assay [9], 2.46 µM; in assay [3] it was 3.34 µM; in assay [5] it was 3.76 µM; in [7] it was 3.23 µM; in assay [8] it was 2.85 µM. For the same molecule, in [10], the TGI was determined as 3.43 µM.

Take `COC(=O)C(NC(=O)CSc1nnc(COc2ccc(Cl)cc2)n1-c1ccccc1)C(C)C` (configuration not stated): the TGI in [1] stood at 74.1 µM; in assay [2], 38.7 µM; in assay [9] it was 38.9 µM; in assay [3], 35.2 µM; in [4] it was 70.6 µM; in [6], 64.7 µM. Moreover, the TGI in assay [7] is 35.1 µM; in [10] it was more than 100 µM.

For `C=CCOC(=O)CCCCCCCCCCCCCCCOC(=O)C1=C(CCC[C@@H](C)O[Si](C)(C)C(C)(C)C)NC(=O)N2[C@H](CC3(CC/C=C\[C@H](CC)O[Si](C(C)C)(C(C)C)C(C)C)OCCO3)CC[C@H]12`, the TGI in [1], in assay [2], in [9], in assay [3], in assay [4] and in [7] was more than 100 µM each time. In assay [8], this molecule displayed a TGI of more than 100 µM.
